Columns and labels:
Assay type in all cases: cell-based, Human
[1] = tested on: HB4A; experiment: Quantification of CMP-Neu5Ac, UDP-GlcNAc, surface Neu5Ac and surface Neu5Gc (HPLC)
Experimental: (§1) Protocol for nutrient deprivation of cells in suspension: Step 1, cell cultures were harvested as described above. Step 2, cells were resuspended in serum-free RPMI-1640 medium and pelleted by centrifugation at 900×g for 5 min; during this step cells experience 10 min of nutrient deprivation in serum-free media without Neu5Ac. Step 3, the cells were rinsed twice in 37° C. PBS by centrifugation for 5 min and 1 mL aliquots of 1×10^4 cells were pipetted gently into 15 mL BD Falcon tubes; during this step the cells experience an additional 20 min of nutrient-deprivation. Step 3, cell suspension aliquots corresponding to […] were equilibrated in tubes containing Neu5Ac-PBS buffer by placing the tubes with opened caps for 60 min in a humidified incubator at 37° C. and 5% CO2 with continuous shaking at 30 strokes per minute; during this Neu5Ac-supplementation step, negative controls were maintained in non-supplemented PBS. Step 4, the Neu5Ac-PBS solution was decanted, the tubes were gently tapped to loosen the gravity-pelleted cells, and then rinsed twice in warm (37° C.) PBS followed by pelleting by 5 min of centrifugation each time, this process provided an additional 30 min of nutrient-deprivation in the absence of supplemental Neu5Ac. The entire 5 step process results in 2 h of nutrient deprivation, after which the cells were analyzed by the methods listed below with the exception of the wound healing assays and lectin staining which used cells that were nutrient-deprived under adherent conditions. Protocol for nutrient deprivation of adherent cells. Step 1, cells were cultured on sterile glass microscope cover slips for two days. Step 2, the cover slips were placed in a sterile plastic rack in warm (37° C.) PBS buffer for 30 min, then the PBS was replaced with Neu5Ac-PBS solution for 60 min to provide Neu5Ac supplementation (controls were maintained in non-supplemented PBS), and then the cell-laden cover slips were placed back in PBS buffer for 30 min. All incubations were performed in a humidified incubator at 37° C. and 5% CO2 with continuous shaking at 30 strokes per minute. Overall this process mimics the non-adherent treatment conditions with respect to the duration of nutrient-deprivation (2 h total) and Neu5Ac supplementation (60 min).
(§2) Cells were split and cultured (before feeding experiments) in RPMI1640 medium supplemented with 1% heat-inactivated human serum (RPMI/HUS) instead of FBS, resulting in chase-out of existing Neu5Gc. Subsequently, cells were fed with 10 mM Neu5Gc in RPMI/HUS medium or under nutrient deprived conditions as described above.
(§3) PBS-washed cells (1 Million) (untreated or Neu5Ac treated) were lysed by hypotonic shock in 1 mL water (15 min, 4° C.). The intracellular cytidine-5′-monophospho-N-acetylneuraminic acid (CMP-Neu5Ac) and uridine-5′-diphospho-N-acetyl-D-glucosamine (UDP-GlcNAc) were purified from the cell lysates and analyzed by ion-pair reversed-phase high performance liquid chromatography (IP RP HPLC) using a ODS column as described. Cell membrane-bound Neu5Ac (from untreated and Neu5Ac treated) and Neu5Gc (from untreated and Neu5Gc treated) were determined by acid hydrolysis followed by derivatization with 1,2-diamino-4,5-methylenedioxybenze (DMB) and HPLC separation as previously described. The content of CAMP-Neu5Ac, UDP-GlcNAc, surface Neu5Ac, and surface Neu5Gc was shown in nano mole per mg cell protein from five independent experiments.
(§4) Table-1: Quantification of nucleotide sugars, surface Nec5Ac, UDP-GlcNAc, Neu5Gc: Cells were treated in the presence and absence of 10 mM Nue5Ac for 2 h under nutrient deprivation and quantity of CMP-Neu5Ac (A), surface Neu5Ac (B), and UDP-GlcNAc (C) were determined. D. For quantification of surface Neu5Gc cells were treated with 10 mM Neu5Gc for 2 hrs under nutrient deprivation. The content of CMP-Neu5Ac, UDP-GlcNAc and Neu5Gc was shown in nano mole per mg cell protein from 5 independent experiments.

[2] = tested on: MCF10A; experiment: as above
Experimental: as §1, §2, §3, §4

[3] = tested on: MCF7; experiment: as above
Experimental: as §1, §2, §3, §4

[4] = tested on: MDA MB231; experiment: as above
Experimental: as §1, §2, §3, §4

[5] = tested on: T47D; experiment: as above
Experimental: as §1, §2, §3, §4

[6] = tested on: MDA MB231 cells; experiment: Microarray of genes upregulated after sialic acid treatment under nutrient deprivation
Experimental: The membrane glycosylation of the cancer cells is synchronized by the alteration of gene expression. The microarray was performed aiming to identify the genes that had undergone changes induced by the enriched sugar environment. […] Inventors examined the status of the expression of those genes at both transcriptional and translational level, in another word, at mRNA and protein level by performing the quantitative real time polymerase chain reaction (qRT-PCR) and immunoblot. Remarkably, qRT-PCR and Western blot are 2 techniques that are used to quantify the expression of mRNA and protein. Data of qRT-PCR and Western blot were in strong agreement with the microarray data indicating a clear link between the expression of those genes and glycosylation of cell membrane domain. This patent aims to pursue the cancer cell management by targeting those genes at mRNA and protein level. Small interference RNA (siRNA) and small hairpin RNA (shRNA) will be designed to knockdown the mRNA. Similarly, the functions of the genes at protein level will be inhibited or disrupted by using antibody, small peptide, pharmaceutical blocker, and targeted toxin. Regression of cancer cells will be verified following transcriptional and translational manipulation.

[7] = tested on: cancer and normal control cells; experiment: TUNEL assay flow cytometry of apoptosis after sialic acid treatment
Experimental: For this purpose, cells were fixed by suspending them in 70% (v/v) ethanol and stored at 4° C. for 15 min, washed twice with cold PBS, and then placed in 96-well plates (1×10^4 cells per well). The cells were then stained with the fluorescein isothiocyanate-labeled lectins (SWGA, WGA, SNA and MAL-1). For the comparison of mean fluorescence intensities, the instrument settings for fluorescence and compensation were the same for all experiments. Data were collected from at least 10,000 cells for each sample. For TUNEL assay, cells were incubated with DNA-labeling solution (10 μL reaction buffer, 0.75 μL TdT enzyme, 8 μL BrdUTP, 31.25 μL of dH2O) for 1 h at 25° C. Each sample was then exposed to an antibody solution consisting of 5 μL Alexa Fluor 488 labeled anti-BrdU antibody with 95 μL rinse solution and allowed to react for 20 min.
FIG. 6: Optimization of conditions for nutrient deprivation and rescue via sialic acid supplementation. […] Data are the representative of five independent experiments.

[8] = tested on: cancer cells T47D, MCF7, MDA MB231; experiment: Membrane glycosylation of cancer cells compared to normal control cells (Table 1 summary); conditions: 10 mM, all the cancer cells compared to control normal cells
Experimental: as §3
Human normal mammary epithelial cell lines MCF10A and HB4A and breast cancer cell lines T47D, MCF7 and MDA MB231 (American Type Culture Collection, USA) used in the study were cultured and treated according to the methods described earlier. Cells were nutritionally deprived using different time points followed by the sialic acid supplementation according to the method described earlier. […] The data were in strong agreement with the immunoblot data which were derived by assessing different enzymes responsible for glycosylation. […]

[9] = treated with 10 mM Neu5Ac for 2 h under nutrient deprivation
[10] = MCF7, treated with 10 mM Neu5Ac for 2 h under nutrient deprivation
[11] = MDA MB231, treated with 10 mM Neu5Ac for 2 h under nutrient deprivation
[12] = 10 mM sialic acid under nutrient deprivation relative to the untreated control
[13] = treated with 10 mM Neu5Gc for 2 hrs under nutrient deprivation

CC(=O)N[C@H]1[C@H]([C@H](O)[C@H](O)CO)OC(O)(C(=O)O)C[C@@H]1O (some centres unmarked) [Neu5Ac, N-acetyl-5-neuraminic acid]
CMP-Neu5Ac [1, 9]: 0.51 ± 1.33 nano mole per mg cell protein | UDP-GlcNAc [1, 9]: 5.32 ± 7.41 nano mole per mg cell protein | surface Neu5Ac [1, 9]: 1.83 ± 2.09 | CMP-Neu5Ac [2, 9]: 0.45 ± 1.92 nano mole per mg cell protein | UDP-GlcNAc [2, 9]: 5.18 ± 2.52 nano mole per mg cell protein | surface Neu5Ac [2, 9]: 1.81 ± 2.15 | CMP-Neu5Ac [3, 10]: 2.253 ± 1.77 nano mole per mg cell protein | UDP-GlcNAc [3, 10]: 12.40 ± 3.66 nano mole per mg cell protein | surface Neu5Ac [3, 10]: 7.05 ± 3.95 | CMP-Neu5Ac [4, 11]: 2.496 ± 2.63 nano mole per mg cell protein | UDP-GlcNAc [4, 11]: 12.53 ± 4.2 nano mole per mg cell protein | surface Neu5Ac [4, 11]: 7.12 ± 4.91 | CMP-Neu5Ac [5, 9]: 1.06 ± 1.42 nano mole per mg cell protein | UDP-GlcNAc [5, 9]: 6.513 ± 5.3 nano mole per mg cell protein | surface Neu5Ac [5, 9]: 5.07 ± 4.56 | Log2 Ratio, CHI3L2 [6, 12]: 2.68 | Log2 Ratio, EQTN [6, 12]: 3.078 | Log2 Ratio, OSMR [6, 12]: 2.215 | Log2 Ratio, PCMTD1 [6, 12]: 2.118 | Log2 Ratio, PHLDA1 [6, 12]: 2.626 | Log2 Ratio, RICTOR [6, 12]: 2.334 | Log2 Ratio, RSRP1 [6, 12]: 2.33 | Log2 Ratio, RUNX2 [6, 12]: 2.21 | Log2 Ratio, SCG2 [6, 12]: 2.171 | Log2 Ratio, SEC24D [6, 12]: 2.199 | expression of 10 particular genes in sialic acid treated cancer cells ([6]; compared to normal control cells): more than 5 folds | apoptosis ([7]; 180 minutes, both cell types, cancer and normal control cells): significant apoptosis | apoptosis ([7]; 240 minutes, both cell types, cancer and normal control cells): significant apoptosis | apoptosis ([7]; cells treated for 120 minutes, 10 mM sialic acid, nutrient deprived condition): no apoptosis

O=C(CO)N[C@H]1[C@H]([C@H](O)[C@H](O)CO)OC(O)(C(=O)O)C[C@@H]1O (some centres unmarked) [Neu5Gc, N-glycolylneuraminic acid]
surface Neu5Gc [1, 13]: 0.182 ± 0.73 nano mole per mg cell protein | surface Neu5Gc [2, 13]: 0.177 ± 0.31 nano mole per mg cell protein | surface Neu5Gc ([3]; MCF7, treated with 10 mM Neu5Gc for 2 hrs under nutrient deprivation): 1.58 ± 0.912 nano mole per mg cell protein | surface Neu5Gc ([4]; MDA MB231, treated with 10 mM Neu5Gc for 2 hrs under nutrient deprivation): 1.79 ± 0.982 nano mole per mg cell protein | surface Neu5Gc [5, 13]: 0.608 ± 0.675 nano mole per mg cell protein | glycosylation of membrane [8]: upregulated the glycosylation significantly

— patent US20180050055A1, “Exploiting nutrient deprivation for modulation of glycosylation - research diagnostic, therapeutic, and biotechnology applications” (priority 2016, published 2018)
